The values that follow come from article PMC8151835, “Phosphinotripeptidic Inhibitors of Leucylaminopeptidases” (International Journal of Molecular Sciences, 2021).

Structures are written as SMILES. Read-outs that look alike come from different tables or passages of the source.

Data set [1] deals with T1, SsLAP (porcine leucine aminopeptidase) (Sus scrofa, UniProt P28839).
T1 construct: Leucyl aminopeptidase (SsLAP) was isolated from the porcine kidney; from tissue; host or cells: porcine kidney
T1 sequence (P28839 1-519): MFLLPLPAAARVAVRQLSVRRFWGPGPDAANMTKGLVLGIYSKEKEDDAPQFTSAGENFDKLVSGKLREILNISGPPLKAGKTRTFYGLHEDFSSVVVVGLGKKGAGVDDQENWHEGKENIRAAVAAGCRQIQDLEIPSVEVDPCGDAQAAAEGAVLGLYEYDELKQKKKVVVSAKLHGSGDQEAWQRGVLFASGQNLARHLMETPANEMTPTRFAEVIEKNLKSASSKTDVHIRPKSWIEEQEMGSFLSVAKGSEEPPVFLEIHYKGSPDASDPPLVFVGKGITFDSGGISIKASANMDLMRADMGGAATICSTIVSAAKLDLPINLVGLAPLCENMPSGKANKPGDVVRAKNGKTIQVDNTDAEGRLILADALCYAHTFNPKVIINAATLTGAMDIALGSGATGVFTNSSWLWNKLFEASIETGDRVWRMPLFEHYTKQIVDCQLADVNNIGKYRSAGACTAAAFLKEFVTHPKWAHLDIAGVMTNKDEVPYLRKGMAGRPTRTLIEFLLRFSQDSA
Put plainly: Inhibition of porcine kidney leucine aminopeptidase, L-Leu-p-nitroanilide hydrolysis, spectrophotometric at 405 nm. In kind it is biochemical. The note with it: for Ki: Dixon method, substrate L-Leu-p-nitroanilide, 37 °C, pH 8.5, mixture of SR and SS isomers. Here is the method:
(§1) The inhibition type, mechanism, and inhibition constants (Ki) were determined using graphical methods (see Figure 3 and Figure 4 and Tables S1 and S2). The inhibition type was determined by the Lineweaver-Burk plot based on the results of the inhibitory effect of the compounds on the hydrolytic activity of L-Leu-p-nitroanilide. […] It should be remembered that inhibitor activity was appointed for the racemic mixtures. All investigated compound 1–9 contains only S isomer in the P2 position, whereas in the P1 position, both R and S isomers were possible. Comparing the obtained activities of the investigated compounds 1–9 toward mammalian and plant aminopeptidases allows us to make some general observations. […] Additionally, SsLAP has better tolerance for the residue in the P1 position, whereas HvLAP prefers hPhe residue in this position.
Leucyl aminopeptidase (SsLAP) was isolated from the porcine kidney modified method described by Spackman and Ledeme. […] KM values correlate well with those given in the works 0.77 mM [58, 59]. The purity of the enzyme was confirmed by electrophoresis.
The enzymatic reaction in the presence of SsLAP was carried out at 37 °C in 7.5 mM TEA-HCl buffer (pH 8.5), containing 5 mM NaCl. The progress of the reaction was monitored spectrophotometrically (UV-VIS Spectrophotometer Cintra 303, GBC Scientific Equipment Ltd., Victoria, Australia) at a wavelength of 405 nm against a control sample containing no enzyme. The attempting mixture contained: Solution of the synthetic substrate L-Leu-p-nitroanilide in DMSO (substrate concentration: 1.5 to 0.2 mM—final concentration), 7.5 mM TEA-HCl buffer (pH 8.5), containing 5 mM NaCl, the solution of the potential inhibitor in reaction buffer (concentration of compound depending on the braking force), and enzyme (0.005 mg of the sample).
(§2) Kinetic constants KM, Vmax, and KI and type of inhibition was determined by methods Lineweaver-Burk, Dixon, Hanes-Woolf, and method half-inhibitory concentration. In the calculation, linearization methods used weighted regression. The values (Ki) given in the tables are the values calculated by the Dixon method. The Ki values calculated with all the above-mentioned methods close to each other. All measurements were made in three-fold repetitions. The graphs show the average values of the three measurements and Sb.

For data set [2], the target named is HvLAP (aminopeptidase from barley seeds). Kind of data set: Inhibition of barley seed aminopeptidase, L-Leu-p-nitroanilide hydrolysis, spectrophotometric at 405 nm. In kind it is biochemical, Hordeum vulgare. The note with it: Dixon method; substrate L-Leu-p-nitroanilide; 37 °C, pH 7.5; mixture of SR and SS isomers. How it is done: as §1
The aminopeptidase from barley seeds (HvLAP) was isolated and purified according to the procedure described by Oszywa. […] The purity of the enzyme was confirmed by electrophoresis.
The enzymatic reaction in the presence of aminopeptidase from barley seeds (HvLAP) was carried out at 37 °C in 50 mM Tris-HCl buffer (pH 7.5), containing 50 mM NaCl, and 10 mM 2-mercaptoethanol. The progress of the reaction was monitored spectrophotometrically (UV-VIS Spectrophotometer Cintra 303, GBC Scientific Equipment Ltd., Victoria, Australia) at a wavelength of 405 nm against a control sample containing no enzyme. The attempting mixture contained: Solution of the synthetic substrate L-Leu-p-nitroanilide in DMSO (substrate concentration: 1.5 to 0.2 mM—final concentration), 50 mM Tris-HCl buffer (pH 7.5), containing 50 mM NaCl, and 10 mM 2-mercaptoethanol, the solution of the potential inhibitor in reaction buffer (concentration of compound depending on the braking force), and enzyme (0.028 mg of the sample).
as §2

Data set [3] concerns the target T1, SsLAP (porcine leucine aminopeptidase). Details: method as in PMID 2568128, PMID 7126535. The note with it: read-out: KM given in the works; cited from earlier work.
Data set [4] relates to HvLAP (aminopeptidase from barley seeds). Details: method as in PMID 23434924, doi:10.1007/s11738-015-1789-8. The following applies: read-out: KM of the isolated enzyme on the synthetic substrate; cited from earlier work.

As for `COC(=O)CCP(=O)(O)C(CCc1ccccc1)NC(=O)[C@@H](N)Cc1ccc(C(=O)c2ccccc2)cc1` (stereo partly drawn) [Compound 8, Methyl 3-[(1-((S)-2-amino-3-(4-benzoylphenyl)propanamido)-3-phenylpropyl)phosphinyl]-propanoate], the melting point was 134 to 140 °C (dec.). The Ki in data set [1] came to 95 ± 9 µM. The Ki in data set [2] turned out to be 159 ± 25 µM.
The molecule `COC(=O)CCP(=O)(O)C(CCc1ccccc1)NC(=O)[C@@H](N)Cc1ccc(-c2ccccc2)cc1` (stereo partly drawn) [Compound 6, Methyl 3-[(1-((S)-3-([1,1′-biphenyl]-4-yl)-2-aminopropanamido)-3-phenylpropyl)phosphinyl]-propanoate] showed a melting point of 126 to 128 °C. The Ki in data set [1] worked out at 175 ± 3 µM. In addition, in data set [2], the Ki is 878 ± 70 µM.
The matching figures for `COC(=O)CCP(=O)(O)C(CC(C)C)NC(=O)[C@@H](N)CCSC` (stereo partly drawn) [Compound 2, Methyl 3-[(1-((S)-2-amino-4-(methylthio)butanamido)-3-methylbutyl)phosphinyl]propanoate]: 183 to 184 °C, 1090 ± 73 µM and 649 ± 43 µM.
The matching figures for `CSCC[C@H](N)C(=O)NC(CCc1ccccc1)P(=O)(O)CCC(=O)O` (stereo partly shown) [Compound 4]: 180 to 185 °C, 229 ± 40 µM and 228 ± 10 µM.
The matching figures for `COC(=O)CCP(=O)(O)C(CC(C)C)NC(=O)[C@@H](N)CCO` (stereo partly shown) [Compound 3]: 174 to 176 °C, 14 ± 1 µM and 121 ± 19 µM.
Take `CC(C)C[C@H](N)C(=O)Nc1ccc([N+](=O)[O-])cc1` [L-Leu-pNA, L-leucine-p-nitroanilide]: the Km was 770 µM in data set [3]; 550 µM in data set [4]; 860 µM in data set [1] (SsLAP isolated from porcine kidney, read-out: KM of the isolated enzyme on the synthetic substrate).
Consider `COC(=O)CCP(=O)(O)C(CC(C)C)NC(=O)[C@@H](N)Cc1ccc(-c2ccccc2)cc1` (stereo partly shown) [Compound 7], for which the melting point fell in the range of 150 to 152 °C. Besides, the inhibition constant (Ki) in data set [1] was determined as 130 ± 14 µM. In addition, the “inhibits SsLAP stronger than HvLAP (selectivity)” value in data set [1] (SsLAP over HvLAP) is roughly 10 times. Moreover, in data set [2], the Ki worked out at 1300 ± 84 µM.
In the case of `CSCC[C@H](N)C(=O)NC(CC(C)C)P(=O)(O)CCC(=O)O` (stereo partly drawn) [Compound 5, 3-[(1-((S)-2-Amino-4-(methylthio)butanamido)-3-methylbutyl)phosphinyl]propanoic acid], the melting point is 218 to 222 °C. The Ki in data set [1] is 3620 ± 433 µM. Further, the Ki in data set [2] was 1040 ± 102 µM.
In the same order, the values of `COC(=O)CCP(=O)(O)C(CC(C)C)NC(=O)[C@@H](N)Cc1ccc(C(=O)c2ccccc2)cc1` (stereo partly drawn) [Compound 9, Methyl 3-[(1-((S)-2-amino-3-(4-benzoylphenyl)propanamido)-3-methylbutyl)phosphinyl]-propanoate] are 124 to 126 °C, 507 ± 31 µM and 797 ± 76 µM.
The matching figures for `COC(=O)CCP(=O)(O)C(CCc1ccccc1)NC(=O)[C@@H](N)CCSC` (stereo partly drawn) [Compound 1, Methyl 3-[(1-((S)-2-amino-4-(methylthio)butanamido)-3-phenylpropyl)phosphinyl]propanoate]: 161 to 164 °C, 532 ± 46 µM and 38 ± 9 µM.

The term Ki denotes a measure of affinity in units of concentration, obtained from inhibition or displacement. One may read the melting point as the temperature of the solid-liquid transition. For orientation: Km means the substrate concentration at which the rate is half of its maximum.
